Measured values taken from US20140199346A1 (priority 2009, published 2014).
Entries after “also recorded” stand apart in the source; their conditions may differ.

Legend:
[1] = test system: H1N1 subtype of influenza virus A/PR/8; experiment: Test Example 1: oral administration to mice infected with influenza virus (1,000 pfu/mouse), body weights and survival rates; type: in vivo
Protocol: Test solutions were prepared for the test groups and control group shown in Table 1 below, respectively, and effects of oral administration of the solutions on mice infected with an influenza virus were examined. It should be noted that “Tamiflu dry syrup 3%” (product name, Chugai Pharmaceutical Co., Ltd.) was used as an anti-influenza drug oseltamivir.
As experimental animals, mice (C57BL/6NJc1, male, 6 weeks old) were used, and as the influenza virus, H1N1 subtype of influenza virus A/PR/8 was used. Infection of the mice with the influenza virus was carried out as follows. That is, the mice were placed in a container filled with isoflurane, and taken out after confirming that their breathing became slow. […] After confirming that the mice recovered from anesthesia, the mice were returned to breeding cages.
It should be noted that the culture solution of Aureobasidium (Test group 1) was orally administered every day during the test period by a sonde method once a day in an amount of 200 μL. […] The body weights of the mice after infection with the virus were measured every day, and transition of the body weights and survival rates were determined.

[2] = test system: H1N1 subtype of influenza virus A/PR/8; experiment: Test Example 2: oral administration to mice infected with influenza virus (2,000 pfu/mouse), body weights and survival rates; type: in vivo
Protocol: It should be noted that the phrase “dead bacterial cells of EF lactic acid bacterium” in the table means a commercially available heat-sterilized bacterial cell powder of Enterococcus faecalis.
Infection of mice used as experimental animals with the influenza virus was carried out so that the virus titer was twice as large as that in Test Example 1. That is, the infection was carried out in the same manner as in Test Example 1 except that a diluted virus solution having a virus titer of 4×10^4 pfu/mL was injected from both nasal cavities alternately using a micropipette in an amount of 50 μL (2,000 pfu/mouse).
That is, in the case of each of Test groups 3 to 5 and Control group 2, the test solution was orally administered every day during the test period by the sonde method once a day in an amount of 200 μL. […]
The body weights of the mice after infection with the virus were measured every day, and transition of the body weights and survival rates were determined.

[3] = test system: H1N1 subtype of influenza virus A/PR/8; experiment: Test Example 4: virus titer in lung of mouse (plaque count on MDCK cells); type: in vivo, mice
Protocol: In order to study mechanisms of the effects shown in Test Examples 1 to 3, influences on a virus titer in the lung of a mouse infected with the influenza virus were examined. Specifically, test solutions were prepared for the test groups and control group shown in Table 7 below, respectively, and orally administered, and the virus titer in the lung of each mouse infected with the influenza virus was examined. It should be noted that the phrase “dead bacterial cells of EF lactic acid bacterium” in the table means a commercially available heat-sterilized bacterial cell powder of Enterococcus faecalis.
That is, the mice were infected with the influenza virus in the same manner as in Test Example 2 except that the period after the beginning of administration of the test solutions was changed to one week. […] In the case of Test group 14, the test was carried out in the same manner as in Test group 13 except that the dead bacterial cells of the lactic acid bacterium (6.7×10^9 cells) were used in combination as a suspension in 200 μL of the culture solution of Aureobasidium. In addition, in the case of Test group 15, to which only oseltamivir was administered, in order to carry out comparison with the maximum effect of administration of only oseltamivir, oseltamivir was orally administered continuously every day (morning and evening, in an amount of 200 μL per dose) after virus infection.
The virus titer in the lung of a mouse was measured as follows.
On day 1, day 3, and day 5 of virus infection, three mice of each group were dissected, and the lung washed with PBS to remove blood was collected. The collected lung was crushed, and the tissue was separated as a cell suspension and then centrifuged at 5,000 rpm for 10 minutes. The supernatant was collected and used as a sample. The collected sample was diluted serially in 10-fold steps with 1×MEM to concentrations ranging from 10^−1 to 10^−6. On the other hand, MDCK cells were cultured from the previous day, and a state in which the MDCK cells (one sample: one 12-well plate) were proliferated to confluency was confirmed. Then, the medium of the MDCK cells was removed, and the cells were washed with 1 ml of PBS. PBS used for washing was removed, and each of the samples diluted serially was added in an amount of 100 μL, and then the plate was allowed to stand still in a 5% CO2 incubator (37° C.) for one hour. During incubation, the plate was shaken every 15 minutes to prevent the cells from drying. Subsequently, 2×MEM was mixed with an equal amount of a 1.6% agar solution, and trypsin was added so as to reach a final concentration of 0.0005% to prepare a MEM-agar solution. The solution was warmed in a water bath at 42° C. One hour later, the virus solution was removed, and the cells were washed with 1 ml of PBS. The prepared MEM-agar solution was added to each well in an amount of 1 ml, and the plate was allowed to stand for a while until the agar was solidified. After that, the cells were cultured in a 5% CO2 incubator (35° C.), and 48 hours later, the number of plaques was counted.

NK cells = test system: NK cells; set-up: species or system mice; conditions: mouse, in vivo
T cells = test system: T cells; set-up: species or system mice; conditions: mouse, in vivo

CCOC(=O)C1=C[C@@H](OC(CC)CC)[C@H](NC(C)=O)[C@@H](N)C1 [Test group 2, oseltamivir]
survival rate ([1]; 1,000 pfu/mouse, oral, until day 14 of infection, 3 mice): 100%
body weight increase at the end of the test (day 14 of infection) as compared to the first day of infection ([1]; individual mouse, 1,000 pfu/mouse): 5%
body weight at completion of the test ([1]; individual mouse, after recovery, day 14 of infection): same body weight as that on the first day of infection
body weight decrease at completion of the test as compared to the first day of infection ([1]; individual mouse, day 14 of infection): 3%
body weight decreased by up to ([1]; individual mouse, maximum loss after infection, 1,000 pfu/mouse): about 20%; also recorded: about 25%
body weights decreased by up to ([2]; mice whose body weight decreased): about 34%
mice died during the test period ([2]; oral, until day 17 of infection): 50%
Comparison of virus titers (virus titer for administration of PBS on each day after infection is defined as 1) ([3]; 1 day after infection): 1/5
Comparison of virus titers (virus titer for administration of PBS on each day after infection is defined as 1) ([3]; 3 days after infection): 1/53
Comparison of virus titers (virus titer for administration of PBS on each day after infection is defined as 1) ([3]; 5 days after infection): 1/89
mouse lung virus titer ([3]; day 1 of infection): 5.88 log10 PFU
increase of lung virus titer as compared to day 1 of infection ([3]; day 3 of infection): 15.4 fold
mouse lung virus titer ([3]; day 3 of infection): 6.83 log10 PFU
increase of lung virus titer as compared to day 1 of infection ([3]; day 5 of infection): 122 fold
mouse lung virus titer ([3]; day 5 of infection): 7.76 log10 PFU
ratio of NK cells in viable cells in the lung (NK cells): about 1.8%
ratio of NK cells in viable cells relative to Control group (NK cells): about one-quarter
ratio of activated NK cells in the NK cells (NK cells): 46.2%
number of activated T cells relative to Control group 5 (T cells): about one-third
ratio of activated T cells in the T cells (T cells): 7.3%
